Measurements: patent US20250043290A1, “RNA SEQUENCES THAT INDUCE FLUORESCENCE OF SMALL MOLECULE FLUOROPHORES, MOLECULAR COMPLEXES, SENSORS, AND METHODS OF USE THEREOF” (CORNELL UNIVERSITY, priority 2021, published 2025)
“Also recorded” adds a separate entry of the source.

Experiments:
HEK293T cells = assay: SAM sensor imaging in HEK293T cells; format: cell-based; details: 30 mM cycloleucine, within 30 minutes
Protocol: FIG. 4A is a schematic showing the design of the Squash-SAM sensor transducer library. The SAM-III aptamer (top) was fused to Squash (bottom) through a transducer helix (middle). The sensor was selected from a library of randomized transducer sequences generated using the sprouts/clips method. FIG. 4B is a bar graph showing the results of an experiment in which, after three rounds of SELEX, two Squash-SAM sensors, 5-1 and 4-2, were tested for SAM-induced fluorescence. Squash-SAM sensor RNAs (1 μM) were incubated with 10 μM DFHO and 0 or 0.1 mM SAM for 1 hour at 37° C. and then fluorescence was measured (ex. 495 nm; em. 562 nm). Data represent mean values±s.d. for n=3 independent experiments. FIGS. 4C-4D are plots showing the kinetics of fluorescence activation (FIG. 4C) and deactivation (FIG. 4D) of Squash-SAM sensors. Sensor activation was induced by adding 0.1 mM SAM to 1 μM sensor RNAs and 10 μM DFHO at 37° C. Deactivation was measured after removal of SAM by gel filtration. […] SAM binding activates the orange fluorescence by promoting Squash folding and subsequent binding with DFHO. The constitutive green fluorescence of Broccoli-BI is used for normalization, thus eliminating the confounding effect of cell-to-cell variation in sensor expression level, and different fluorescence measurements in thick vs. thin parts of the cell. […] The ratio was measured at 10 minute time intervals. […]

mES cells = assay: Ratiometric SAM imaging in mES cells; format: cell-based, Mouse; details: 30 mM cycloleucine, +2i and −2i media, sensor 4-2
HCT116 cells = assay: Ratiometric SAM imaging in HCT116 cells; format: cell-based; details: 30 mM cycloleucine, sensor 5-1
Protocol: The control constitutively fluorescent Squash was not affected by withdrawal of threonine and methionine. Scale bar, 20 μm. […] Overall, low cell-to-cell variation was seen (n=8 cells from three separate experiments). […] The rate of SAM drop was slower than the rate in cells cultured in +2i (n=8 cells from three separate experiments). […] SAM levels were measured at 20 minute time intervals after methionine withdrawal and after methionine (100 μM) addition. Cells indicated with a white arrow start with a very high level of SAM and show a slow drop in SAM levels over time, indicating low SAM utilization. Scale bar, 20 μm. […]
5-1 was used because it has higher dynamic range. […] To test if this also holds in HCT116 cells, Squash-SAM sensor 5-1 was expressed in HCT116 cells and SAM level was monitored after threonine depletion. […] To test this, Squash-SAM sensor 5-1 was expressed in HCT116 cells and SAM levels were monitored for 240 minutes after depleting both threonine and methionine. […] The average cellular ratio of O/G fluorescence was quantified for these cells at 15 minute intervals after cycloleucine (30 mM final) treatment. […]
After placing the plates on a Tokai Hit stage top incubator (37° C. and 5% CO2), live fluorescence images were taken with a Nikon Eclipse Ti-E microscope fitted with a CoolSnap HQ2 CCD camera (Photometrics) through a 40× air objective (NA 0.75). […]

[1] = Photophysical properties of fluorophores and RNA-fluorophore complexes (Squash study); format: physicochemical; details: 10 μM RNA, 1 μM DFHO
Protocol: All RNAs used for in vitro studies (except the initial hits from SELEX and the DE2-6 mutants) were purified using 8% denaturing PAGE (7M urea) and eluted in 0.3 M NaOAc (pH 5.2) overnight. The RNA was ethanol precipitated and quantified using absorbance in a NanoDrop 2000 spectrometer. All in vitro RNA properties were measured in 40 mM HEPES-KOH (pH 7.4), 100 mM KCl, 0.5 mM MgCl2 buffer unless specified.
Absorption, excitation, and emission spectra were measured using conditions where the RNA is in excess and the fluorophore is limiting to ensure that no free fluorophore contributes to the absorbance or fluorescence signal (FIGS. 7A-7D).
All quantum yields were determined by comparing each RNA-fluorophore complex with Broccli-DFHBI-1T or Corn-DFHO. All measurements for quantum yield were taken in the presence of excess RNA (10 μM final) compared to the fluorophores (0.2 μM final) to avoid interference from unbound fluorophore. The integral of the emission spectra for each Squash-fluorophore complex was compared with the corresponding integrals for Broccoli or Corn to calculate the quantum yield.

[2] = On and off rates of aptamer binding to DFHO; details: 50 nM RNA
Protocol: FIGS. 7A-7H provide photophysical and biophysical characterization of Squash. […] Excess RNA was used to ensure binding of nearly all fluorophore. […] Data represent mean values±s.d. for n=3 independent experiments. […] The fluorescence signal trace was fitted with a monoexponential curve to extract kobs. kobs was plotted as a function of total RNA (50 nM RNA) and fluorophore concentration. kon and koff were extracted as the slope and intercept, respectively. Squash koff (0.014±0.008 s^−1) is very similar to that of Corn (0.018±0.002 s^−1). kon for Squash-DFHO (162300±8100 M^−1 s^−1) is seven-times higher than Corn-DFHO (23000±3000 M^−1 s^−1) which could be due to the high folding of Squash. […]
To measure on and off rates of Squash binding to DFHO, the same protocol that was reported previously to measure kinetic rates for Spinach-DFHBI was used (Han et al., “Understanding the Photophysics of the Spinach-DFHBI RNA Aptamer-Fluorogen Complex to Improve Live-Cell RNA Imaging,” J. Am. Chem. Soc. 135:19033-19038 (2013), which is hereby incorporated by reference in its entirety). Briefly, 50 nM RNA was mixed with different amounts of DFHO and binding kinetics was monitored on the fluorimeter as fluorescence signal increases. Each fluorescence signal trace was fitted with a monoexponential curve and the observed rate constant (kobs) was extracted. […]

[3] = Fluorescence activation of DFAME by aptamers in vitro; format: biochemical; details: 20 μM RNA, 2 μM dye
Protocol: To test whether Beetroot can activate DFHO, the fluorescence emission spectrum of the Beetroot-DFHO complex was measured. In brief, 20 μM Beetroot and 2 μM DFHO were mixed, and the fluorescence emission of the Beetroot-DFHO complex was measured. […] To test whether Beetroot can activate DFHBI-1T, the fluorescence emission spectrum of the Beetroot-DFHBI-1T complex was measured using the same protocol described in FIG. 32A. […] To test whether Beetroot can activate BI, the fluorescence emission spectrum of the Beetroot-BI complex was measured using the same protocol described in FIG. 32A. […] To test whether Corn can activate DFAME, the fluorescence emission spectrum of the Corn-DFAME complex was measured using the same protocol described in FIG. 32A.
The eluted RNAs were then ethanol precipitated, reverse transcribed, PCR amplified and in vitro transcribed to yield the pool for the next SELEX round. The presence of fluorescent RNA species in each pool was assessed by mixing 20 μM RNA and 10 μM DFAME and measuring fluorescence emission of this solution on a fluorometer in comparison with the fluorophore alone. At this point, RNAs were cloned into bacterial expression plasmids for FACS-based screening.
dsDNA encoding the top-performing RNA sequences from the brightest bacterial colonies was PCR amplified from the purified plasmids. […] The resulting RNA was then purified using Zymo RNA concentrator columns and quantified by absorbance using a Thermo Scientific NanoDrop 2000 spectrophotometer. For absorption, excitation and emission spectra measurements, “excess RNA” conditions and limiting amount of fluorophore was used to ensure that no free fluorophore contributes to the absorbance or fluorescence signal. The RNA concentration used for fluorescence and absorbance measurements was 20 μM and 50 μM, respectively, while the dye concentration was 2 μM and 5 μM, respectively. All in vitro RNA properties were measured in 40 mM HEPES pH 7.4, 100 mM KCl, 5 mM MgCl2 buffer, unless specified.

| Compound | Sensor signal (SAM level) after cycloleucine (HEK293T cells) | SAM levels after cycloleucine (mES cells) | SAM levels after cycloleucine (HCT116 cells) | Emission maxima with DFHO [1] [nm] | koff [2] [s⁻¹] | Binding and activation of DFAME fluorescence [3] |
| --- | --- | --- | --- | --- | --- | --- |
| NC1(C(=O)O)CCCC1 [cycloleucine] | rapid decrease in fluorescence; also recorded: markedly reduced | rapid drop of cellular SAM levels; also recorded: markedly depleted | marked drop in SAM |  |  |  |
| Corn: previously reported RNA aptamer that homodimerizes and activates DFHO, SEQ ID NO:103 (CGAGGAAGGAGGUCUGAGGAGGUCACUG; RNA, backbone not given here) [reference compound] |  |  |  | 545 | 0.018 ± 0.002 | weakly binds and activates; also recorded: only weakly bind and activate |
